# Tested on: A549 cells
# Experiment: Cytoprotective action to stimulation by cigarette smoke extract (LDH assay)
# Format: cell-based, human
# Details: NAC 0.1 mM, FIG. 2
# Description: A549 cells were pre-incubated for 16 hours with addition of a test substance (0.01 U/mL) in a DMEM medium wherefrom thiol was removed. Incubation was conducted for 6 hours more after addition of a cigarette smoke extract […] and, after that, LDH in the supernatant liquid of the culture was measured by means of an LDH assay (Roche Diagnostics) and used as an index for viability of the cells. The cigarette smoke extract (CSE) was prepared using a cigarette smoke generator SG-200 (Shibata Kagaku). Thus, smoke of ten cigarettes (Kentucky Research Cigarette 2R4F) which was passed through 10 mL of DMEM wherefrom thiol was removed (10% HEPES was added thereto) was defined as 100% CSE and used after appropriately diluting to the concentrations which were suitable for the experiments.
compound,measurement,value
"CC(=O)N[C@@H](CS)C(=O)O [NAC, N-acetylcysteine]","cell injury by CSE, effect of the extract compared with NAC",identical
